Assay results as given in ChEMBL document CHEMBL4330178 (ACS Med Chem Lett, 2019).

How the values were obtained:
[1] = biological target: von Hippel-Lindau disease tumor suppressor/Mitogen-activated protein kinase 14 (Homo sapiens, UniProt P40337+Q16539); assay: Protac activity at E3 ubiquitin ligase/p38alpha in human MDA-MB-231 cells assessed as p38alpha degradation after 4 hrs by ELISA; type: cell-based
[2] = biological target: von Hippel-Lindau disease tumor suppressor/Mitogen-activated protein kinase 14 (Homo sapiens) (UniProt Q16539+P40337); assay: Protac activity at E3 ubiquitin ligase/p38alpha in human MDA-MB-231 cells assessed as p38alpha degradation after 4 hrs by ELISA relative to control; type: cell-based
Chain of von Hippel-Lindau disease tumor suppressor/Mitogen-activated protein kinase 14 (Homo sapiens) (P40337 whole entry partner): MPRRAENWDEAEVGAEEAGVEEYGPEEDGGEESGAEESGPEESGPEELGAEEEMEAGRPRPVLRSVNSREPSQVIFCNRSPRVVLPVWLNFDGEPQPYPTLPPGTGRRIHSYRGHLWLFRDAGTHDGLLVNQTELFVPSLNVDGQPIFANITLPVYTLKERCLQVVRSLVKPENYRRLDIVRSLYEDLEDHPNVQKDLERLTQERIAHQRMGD
Chain of von Hippel-Lindau disease tumor suppressor/Mitogen-activated protein kinase 14 (Homo sapiens) (Q16539 2-360 limits assumed): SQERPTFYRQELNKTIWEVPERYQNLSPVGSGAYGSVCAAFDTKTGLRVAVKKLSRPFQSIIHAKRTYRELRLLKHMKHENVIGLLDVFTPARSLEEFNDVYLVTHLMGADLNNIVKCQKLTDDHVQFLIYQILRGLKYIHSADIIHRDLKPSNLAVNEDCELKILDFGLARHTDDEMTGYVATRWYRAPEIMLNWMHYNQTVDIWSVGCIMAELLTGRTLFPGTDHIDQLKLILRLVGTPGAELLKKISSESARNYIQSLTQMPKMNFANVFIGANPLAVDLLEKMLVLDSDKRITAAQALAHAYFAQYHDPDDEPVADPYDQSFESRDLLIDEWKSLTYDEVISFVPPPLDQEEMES

Chain of von Hippel-Lindau disease tumor suppressor/Mitogen-activated protein kinase 14 (Q16539 whole entry): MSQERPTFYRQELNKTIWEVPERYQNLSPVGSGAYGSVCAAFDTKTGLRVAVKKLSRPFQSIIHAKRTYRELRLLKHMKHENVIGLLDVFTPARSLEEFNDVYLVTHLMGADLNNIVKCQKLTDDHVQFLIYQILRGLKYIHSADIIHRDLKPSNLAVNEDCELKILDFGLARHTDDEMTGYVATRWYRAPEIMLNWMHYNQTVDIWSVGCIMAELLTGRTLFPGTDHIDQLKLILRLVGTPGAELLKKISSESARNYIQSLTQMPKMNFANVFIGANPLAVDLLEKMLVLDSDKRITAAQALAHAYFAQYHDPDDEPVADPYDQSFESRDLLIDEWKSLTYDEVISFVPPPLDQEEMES
Chain of von Hippel-Lindau disease tumor suppressor/Mitogen-activated protein kinase 14 (P40337 whole entry): as the sequence (P40337 whole entry partner) above

IC50 [1] [µM]	Emax [2] [%]	SMILES
0.0188	91	COc1cc2c(Oc3ccc(NC(=O)C4(C(=O)Nc5ccc(F)cc5)CC4)cc3F)ccnc2cc1OCCCOCCOCCC(=O)N[C@H](C(=O)N1C[C@H](O)C[C@H]1C(=O)NCc1ccc(-c2scnc2C)cc1)C(C)(C)C
0.05	95	COc1cc2c(Oc3ccc(NC(=O)C4(C(=O)Nc5ccc(F)cc5)CC4)cc3F)ccnc2cc1OCCCOCCCOCCC(=O)N[C@H](C(=O)N1C[C@H](O)C[C@H]1C(=O)NCc1ccc(-c2scnc2C)cc1)C(C)(C)C
0.0401	81	COc1cc2c(Oc3ccc(NC(=O)C4(C(=O)Nc5ccc(F)cc5)CC4)cc3F)ccnc2cc1OCCOCCOCCC(=O)N[C@H](C(=O)N1C[C@H](O)C[C@H]1C(=O)NCc1ccc(-c2scnc2C)cc1)C(C)(C)C
